Measured values reported in patent publication US20250127166A1, “METHOD FOR PREVENTING INSECT DAMAGE TO PLANTS” (AJINOMOTO CO., INC., priority 2022, published 2025).
“Also recorded” adds a separate entry of the source.

Key:
Pieris rapae [1] = test: 4-hour feeding damage test on Arabidopsis thaliana, comparison with commercial product (Example 4); assay type: in vivo; details: Compound 1 at 100 mM on leaf cut, 4-hour test
Description: The recombinant Arabidopsis thaliana […]: : GCaMP3 was used as a plant material, and cut was formed on the first leaf of the plant cultivated in the same manner as those of Examples 1, 2, and 3 and treated with a compound. Compound 1 and Jasmomate were used as the compound. Compound 1 was used at 100 mM, and Jasmomate was used at a 500-fold dilution concentration (0.4 mM as prohydrojasmon concentration), which is the usual recommended treatment concentration thereof. Sorbitol was used as a negative control. The test was conducted for 15 replicates per plot (independent plants and insects). For Jasmomate, a spray treatment of the leaves was performed (spray plot, Jasmomate was sprayed twice at the concentration mentioned above with an atomizer). The test of the spray plot was conducted for 10 replicates (independent plants and insects). One hour after the compound treatment, the plant body and 2-week old larva of Pieris rapae were placed in the same container to perform a 4-hour feeding damage test. The larva was weighed before and after the test, and the weight gain rate of the pest was evaluated.

Pieris rapae [2] = test: 4-hour feeding damage test on Arabidopsis thaliana (Example 3); assay type: in vivo; details: for pest damage-suppressing activity: Pieris rapae larva, 4-hour feeding damage test
Description: The recombinant Arabidopsis thaliana […]: : GCaMP3 was used as a plant material, and cut was formed on the first leaf of the plant grown in the same manner as in Example 1 and treated with a compound. Compound 1 was used as the compound. Sorbitol was used as the negative control, and glutamic acid as the positive control. The test was repeatedly conducted 10 times (using independent plants and pests) per plot. One hour after the treatment with the compound, the plant body and 2-week old larva of Pieris rapae were placed in the same container to perform a 4-hour feeding damage test. Weights of the plant body and larva were measured before and after the test to evaluate the weight of the feeding-damaged plant and the weight gain rate of the pest.

AtOPR^3 gene = test: Pest damage resistance gene expression induction by qPCR; assay type: in vivo, Arabidopsis thaliana; details: sixth leaves, 30 minutes after compound treatment of cut first leaf; relative to AtACT8; FIG. 1
Description: As the pest damage resistance gene, the AtOPR^3 (12-oxophytodienoic acid reductase, involved in the jasmonic acid biosynthesis) gene, which is a typical pest damage resistance gene, was selected. As an internal standard, the AtACT8 gene was selected. The recombinant Arabidopsis thaliana p35S: : GCaMP3 was used as a plant material, and cut was formed on the first leaf of the plant cultivated in the same manner as in Example 1 and treated with a compound. As the compound, Compounds 1 and 34 were used. Sixth leaves at 0 and 30 minutes after the compound treatment were collected and frozen in liquid nitrogen. The total RNA was extracted from the frozen leaf samples (50 to 200 mg) by using RNeasy Plant Mini Kit (Qiagen) according to the protocol thereof. The obtained total RNA was subjected to a residual genomic DNA-removing treatment with RNase free DNase I by using TURBO DNase Kit (Ambion) according to the protocol of the kit. By using this total RNA sample and SuperScriptIII First-Strand Synthesis System for RT-PCR (Invitrogen), single-stranded cDNA was prepared. […] The relative expression amount of the AtOPR^3 gene to that of the internal standard AtACT8 gene was calculated by the AACt method. The test was repeatedly performed 4 or 5 times, and the average of the results was calculated.

Spodoptera litura = test: Komatsuna leaf disc feeding damage test (Example 5); assay type: in vivo; details: one day
Description: Glutamic acid was used as a positive control, and Jasmomate Ekizai (the active substance is prohydrojasmon, a typical injurious hormone-like substance), which is the only resistance inducer for pest damage on the market, was used as a control. The test was conducted for 10 replicates per plot (independent plants and pests).
The plant material was leaf discs collected from komatsuna (Brassica rapa var. perviridis) seedlings grown for 1 month after seeding on culture soil in pots, and the test organism was early second instar larva of Spodoptera litura. Compound 1 was used as a 1 mM solution in Silwet L-77 4,000-fold dilution solution prepared by adding Silwet L-77 to distilled water as a solvent. As a negative control, 100 mM or 1 mM sorbitol was used, and 100 mM or 1 mM glutamic acid was used as a positive control. […] One day after the release, the number of surviving Spodoptera litura larvae in each test container was counted, and a photograph was taken from a height of 5 cm above the container with the lid open so that the entire image could be photographed. Image analysis software (ImageJ) was used to determine the damage area (feeding damage area), and the average damage area ratio was calculated for each treatment plot.

[3] = system: glutamate receptor of Arabidopsis thaliana; test: Real-time imaging assay of Ca2+ signals in recombinant Arabidopsis thaliana p35S::GCaMP3; assay type: in vivo; details: 3 μL of 100 mM solution (10 mM for some compounds with low solubility) applied to leaf cut; GCaMP3 fluorescence
Description: In this example, Ca2+signals produced by contact of Compounds 1-58 and 67-75 with the glutamate receptor of Arabidopsis thaliana were analyzed by a real-time imaging assay in which Ca2+is visualized by fluorescence color development. That is, by using a recombinant Arabidopsis thaliana p35S: : GCaMP3, which incorporated the gene encoding the calcium-sensitive fluorescent protein GCaMP3, as a material, changes in intracellular Ca2+ levels caused by treatments with Compounds 1-58 and 67-75 were detected as fluorescence luminance of GCaMP3, and thereby Ca2+signal transduction in plant bodies was analyzed in real time.
The real-time imaging assay of the Ca2+signals was performed as follows.
As the plant material, 2-week old recombinant Arabidopsis thaliana p35S: : GCaMP3 grown on sterile agar medium was used. A small cut of about 1 mm was made at the tip of the first leaf with scissors, and the plant was allowed to stand for 35 minutes. The plant was then placed under the field of view of the fluorescence microscope SMZ25 (Nikon Solutions), and 3 μL of a compound solution was applied to the leaf cut. The generated Ca2+signals were examined in real time with ORCA-Flash4.0 V2 (Hamamatsu Photonics). […] Compounds that produced Ca2+signals in one or more leaves were determined to be compounds that induce Ca2+signals.

## CC(C)OC(=O)CC[C@H](N)C(=O)O [Compound 1]
Pieris rapae [1]
  pest damage-suppressing activity: distinct pest damage-suppressing activity was observed
Pieris rapae [1]; vs sorbitol plot, FIG. 4
  weight gain rate of the pest: lower in the Compound 1-treated plot than in the sorbitol-treated plot
Pieris rapae [2]; 2-week old Pieris rapae larva, 4-hour test 1 hour after treatment, vs sorbitol plot, FIG. 2
  weight of the feeding-damaged plant: lower in the Compound 1-treated plot than in the sorbitol-treated plot
Pieris rapae [2]; 2-week old Pieris rapae larva, 4-hour test 1 hour after treatment, vs sorbitol plot, FIG. 3
  weight gain rate of the pest: lower in the Compound 1-treated plot than in the sorbitol-treated plot
Pieris rapae [2]
  pest damage-suppressing activity: distinct pest damage-suppressing activity was observed
AtOPR^3 gene
  pest damage resistance gene (AtOPR^3) expression-inducing activity: equal to or greater than that of glutamic acid; also recorded: high pest damage resistance gene expression-inducing activity
Spodoptera litura; 1 mM in Silwet L-77 4,000-fold dilution solution
  pest damage-suppressing effect (feeding inhibitory effect): higher than those observed for the 100 mM glutamic acid treatment plot and Jasumomate treatment plot
[3]
  Ca2+signal induction: strong Ca2+signal induction

## N[C@@H](CCC(=O)N[C@@H](CCC(=O)O)C(=O)O)C(=O)O [Compound 34]
AtOPR^3 gene
  pest damage resistance gene (AtOPR^3) expression-inducing activity: equal to or greater than that of glutamic acid
[3]
  Ca2+signal induction: strong Ca2+signal induction

## N[C@@H](CCC(=O)O)C(=O)O [glutamic acid, reference compound]
Pieris rapae [2]
  pest damage-suppressing activity: no pest damage-suppressing activity was observed
Spodoptera litura; 100 mM, compared with 100 mM sorbitol plot
  pest damage-suppressing tendency: greater pest damage-suppressing tendency was observed
